Results from patent US6387906B1, “2,4,4-trisubstituted-1,3-dioxolane antifungals” (priority 1997, dated 2002).

Experiments:
Candida kefyr = assay: Measurement of antifungal activity in vitro (lowest active dose) vs. Candida kefyr; assay type: cell-based; settings: lowest concentration inhibiting growth below 35% of control growth; CYG broth, 37° C. for 48 h, turbidimetry
Method: (§1) Test compounds were dissolved at a concentration of 10^−2 M in dimethyl sulfoxide (DMSO) and diluted into CYG broth (Odds, F. C. Antimicrobial Agents and Chemotherapy 1992; 36: 1727-1737) to give a final concentration of 25 μM and, in most tests, 5 μM. For some compounds the tests were done at 100, 10, 1.0 and 0.1 μM. Cultures were inoculated with Candida.kefyr to an initial concentration of 10^4/ml and with Trichophyton rubrum to an equivalent concentration determined by turbidimetry. Cultures were incubated in the wells of microdilution plates at 37° C. for 48 h (C. kefyr) and at 30° C. for 5-7 days (T. rubrum). Growth in wells containing test compounds was estimated turbidimetrically as a percentage of growth in compound-free controls and the lowest concentration of compound that inhibited the growth of an isolate below 35% of control growth was recorded as the lowest active dose (LAD).

Trichophyton rubrum = assay: Measurement of antifungal activity in vitro (lowest active dose) vs. Trichophyton rubrum; assay type: cell-based; settings: lowest concentration inhibiting growth below 35% of control growth; CYG broth, 30° C. for 5-7 days, turbidimetry
Method: as §1

Structure (SMILES) | LAD (μM) vs. C. keyr (Candida kefyr) | LAD (μM) vs. T. rubrum (Trichophyton rubrum)
CCCN1CCN(c2ccc(N3CCN(c4ccc(OCC5OCC(Cn6ccnc6)(c6ccc(Cl)cc6)O5)cc4)CC3)cc2)C1=O (racemic) [Compound 4] | ≦5 μM | ≦5 μM
CCCN1C(=O)N(c2ccc(N3CCN(c4ccc(OCC5OCC(Cn6ccnc6)(c6ccc(Cl)cc6)O5)cc4)CC3)cc2)CC1(C)C (racemic) [Compound 5] | ≦25 μM | ≦5 μM
CCCN1C(=O)N(c2ccc(N3CCN(c4ccc(OC[C@@H]5OC[C@@](Cn6cncn6)(c6ccc(Cl)cc6)O5)cc4)CC3)cc2)CC1(C)C (racemic) [Compound 9] | ≦25 μM | ≦25 μM
CCCN1C(=O)N(c2ccc(N3CCN(c4ccc(OC[C@@H]5OC[C@@](Cn6ccnc6)(c6ccc(F)cc6)O5)cc4)CC3)cc2)CC1(C)C (racemic) [Compound 12] | ≦25 μM | ≦5 μM
CCCN1C(=O)N(c2ccc(N3CCN(c4ccc(OC[C@@H]5OC[C@@](Cn6cncn6)(c6ccc(F)cc6)O5)cc4)CC3)cc2)CC1(C)C (racemic) [Compound 13] | ≦5 μM | ≦5 μM
CCN1C(=O)N(c2ccc(N3CCN(c4ccc(OC[C@@H]5OC[C@@](Cn6cncn6)(c6ccc(F)cc6F)O5)cc4)CC3)cc2)C(C)(C)C1=O (racemic) [Compound 19] | ≦5 μM | ≦25 μM
CCC1C(=O)N(c2ccc(N3CCN(c4ccc(OC[C@@H]5OC[C@@](Cn6cncn6)(c6ccc(F)cc6F)O5)cc4)CC3)cc2)C(=O)N1CC (mixture of isomers) [Compound 20] | ≦5 μM | >25 µM
CC(C)N1CCN(c2ccc(N3CCN(c4ccc(OC[C@@H]5OC[C@@](Cn6ccnc6)(c6ccc(F)cc6)O5)cc4)CC3)cc2)C1=O (racemic) [Compound 23] | ≦5 μM | ≦5 μM
CCN1CCN(c2ccc(N3CCN(c4ccc(OC[C@@H]5OC[C@@](Cn6ccnc6)(c6ccc(F)cc6)O5)cc4)CC3)cc2)C1=O (racemic) [Compound 24] | ≦25 μM | ≦5 μM
CCCN1CCN(c2ccc(N3CCN(c4ccc(OC[C@@H]5OC[C@@](Cn6ccnc6)(c6ccc(F)cc6)O5)cc4)CC3)cc2)C1=O (racemic) [Compound 25] | ≦5 μM | ≦5 μM
CCCCN1CCN(c2ccc(N3CCN(c4ccc(OC[C@@H]5OC[C@@](Cn6ccnc6)(c6ccc(F)cc6)O5)cc4)CC3)cc2)C1=O (racemic) [Compound 26] | ≦25 μM | ≦5 μM
CCN1CCN(c2ccc(N3CCN(c4ccc(OC[C@@H]5OC[C@@](Cn6ccnc6)(c6ccc(Cl)cc6)O5)cc4)CC3)cc2)C1=O (racemic) [Compound 27] | ≦5 μM | ≦5 μM
CC(C)N1CCN(c2ccc(N3CCN(c4ccc(OC[C@@H]5OC[C@@](Cn6ccnc6)(c6ccc(Cl)cc6)O5)cc4)CC3)cc2)C1=O (racemic) [Compound 28] | ≦25 μM | ≦5 μM
CCCCN1CCN(c2ccc(N3CCN(c4ccc(OC[C@@H]5OC[C@@](Cn6ccnc6)(c6ccc(Cl)cc6)O5)cc4)CC3)cc2)C1=O (racemic) [Compound 29] | ≦25 μM | ≦5 μM
CCCN1CCN(c2ccc(N3CCN(c4ccc(OC[C@@H]5OC[C@@](Cn6ccnc6)(c6ccc(F)cc6F)O5)cc4)CC3)cc2)C1=O (racemic) [Compound 30] | ≦5 μM | ≦5 μM
CCN1CCN(c2ccc(N3CCN(c4ccc(OC[C@@H]5OC[C@@](Cn6ccnc6)(c6ccc(F)cc6F)O5)cc4)CC3)cc2)C1=O (racemic) [Compound 32] | ≦25 μM | ≦5 μM
CC(C)N1CCN(c2ccc(N3CCN(c4ccc(OC[C@@H]5OC[C@@](Cn6ccnc6)(c6ccc(F)cc6F)O5)cc4)CC3)cc2)C1=O (racemic) [Compound 34] | ≦5 μM | ≦5 μM
CCC(C)N1CCN(c2ccc(N3CCN(c4ccc(OC[C@@H]5OC[C@@](Cn6ccnc6)(c6ccc(F)cc6F)O5)cc4)CC3)cc2)C1=O (mixture of isomers) [Compound 35] | ≦25 μM | ≦5 μM
CC(C)N1CCN(c2ccc(N3CCN(c4ccc(OC[C@@H]5OC[C@@](Cn6cncn6)(c6ccc(F)cc6)O5)cc4)CC3)cc2)C1=O (racemic) [Compound 40] | ≦25 μM | ≦5 μM
CN1CCN(c2ccc(N3CCN(c4ccc(OC[C@@H]5OC[C@@](Cn6ccnc6)(c6ccc(F)cc6)O5)cc4)CC3)cc2)C1=O (racemic) [Compound 42] | ≦5 μM | ≦5 μM
CCC(CC)N1CCN(c2ccc(N3CCN(c4ccc(OC[C@@H]5OC[C@@](Cn6ccnc6)(c6ccc(F)cc6)O5)cc4)CC3)cc2)C1=O (racemic) [Compound 44] | ≦5 μM | ≦5 μM
CCC(C)N1CCN(c2ccc(N3CCN(c4ccc(OC[C@@H]5OC[C@@](Cn6cncn6)(c6ccc(F)cc6F)O5)cc4)CC3)cc2)C1=O (relative stereo) [Compound 21, cis-1-[4-[4-[4-[[4-(2,4-difluorophenyl)-4-(1H-1,2,4-triazol-1-ylmethyl)-1,3-dioxolan-2-yl]methoxy]phenyl]-1-piperazinyl]phenyl]-3-(1-methylpropyl)-2-imidazolidinone] | ≦0.1 μM | ≦0.1 μM
CCCn1c(=O)n(CC)c(=O)n(-c2ccc(N3CCN(c4ccc(OC[C@H]5OC[C@](Cn6cncn6)(c6ccc(F)cc6F)O5)cc4)CC3)cc2)c1=O (relative stereo) [Compound 47, (2S-cis)-1-ethyl-3-[4-[4-[4-[[4-(2,4-difluorophenyl)-4-(1H-1,2,4-triazol-1-ylmethyl)-1,3-dioxolan-2-yl]methoxy]-phenyl]-1-piperazinyl]phenyl]-5-propyl-1,3,5-triazine-2,4,6(1H,3H,5H)-trione] | >100 µM | 1 µM
CCN1C(=O)N(c2ccc(N3CCN(c4ccc(OC[C@@H]5OC[C@@](Cn6cncn6)(c6ccc(F)cc6F)O5)cc4)CC3)cc2)C(=O)C(C)(C)C1=O (relative stereo) [Compound 48, (2R-cis)-1-ethyl-3-[4-[4-[4-[[4-(2,4-diflurorophenyl)-4-(1H-1,2,4-triazol-1-ylmethyl)-1,3-dioxolan-2-yl]methoxy]phenyl]-1-piperazinyl]phenyl]-5,5-dimethyl-2,4,6(1H,3H,5H)-pyrimidinetrione] | 10 µM | >100 µM
CC(C)N1CCN(c2ccc(N3CCN(c4ccc(OC[C@@H]5OC[C@@](Cn6cncn6)(c6ccc(F)cc6F)O5)cc4)CC3)cc2)C1=O (stereo in doubt) [Compound 41] | ≦0.1 μM | ≦0.1 μM
